According to US8618289B2 (Ambit Biosciences Corporation, priority 2008, dated 2013):

Key:
[1] = system: MEK1 phosphorylation in the A375 human melanoma cell line; experiment: cells; settings: A-375, read-out: pMEK IC50
RAF kinases [2] = target: RAF kinases (Homo sapiens, UniProt P04049); experiment: biochemical
RAF kinases [3] = target: RAF kinases (Homo sapiens, UniProt P15056); experiment: biochemical
A375 cells = experiment: cells; settings: Homo sapiens, A-375, read-out: A375 Viability EC50
Procedure: The following day, the medium was replaced with 0.5% FBS in M3 for overnight incubation. […] The cells were incubated with compound or control for 72 hours at 37° C. under 10% CO2. Following incubation, Cell Titer Blue reagent (Promega) was added to each well containing compounds or controls, and then incubated for 3 hours at 37° C. under 10% CO2. Proliferation was measured by fluorescence with excitation at 560 nm and emission at 590 nm using SoftMax Pro.

RAF kinases [4] = target: RAF kinases (Homo sapiens, UniProt P15056, V600E); settings: read-out: BRAF V600E Kd; BRAF V600E
Sequence of RAF kinases (Homo sapiens, UniProt P15056, V600E) (P15056 whole entry V600E): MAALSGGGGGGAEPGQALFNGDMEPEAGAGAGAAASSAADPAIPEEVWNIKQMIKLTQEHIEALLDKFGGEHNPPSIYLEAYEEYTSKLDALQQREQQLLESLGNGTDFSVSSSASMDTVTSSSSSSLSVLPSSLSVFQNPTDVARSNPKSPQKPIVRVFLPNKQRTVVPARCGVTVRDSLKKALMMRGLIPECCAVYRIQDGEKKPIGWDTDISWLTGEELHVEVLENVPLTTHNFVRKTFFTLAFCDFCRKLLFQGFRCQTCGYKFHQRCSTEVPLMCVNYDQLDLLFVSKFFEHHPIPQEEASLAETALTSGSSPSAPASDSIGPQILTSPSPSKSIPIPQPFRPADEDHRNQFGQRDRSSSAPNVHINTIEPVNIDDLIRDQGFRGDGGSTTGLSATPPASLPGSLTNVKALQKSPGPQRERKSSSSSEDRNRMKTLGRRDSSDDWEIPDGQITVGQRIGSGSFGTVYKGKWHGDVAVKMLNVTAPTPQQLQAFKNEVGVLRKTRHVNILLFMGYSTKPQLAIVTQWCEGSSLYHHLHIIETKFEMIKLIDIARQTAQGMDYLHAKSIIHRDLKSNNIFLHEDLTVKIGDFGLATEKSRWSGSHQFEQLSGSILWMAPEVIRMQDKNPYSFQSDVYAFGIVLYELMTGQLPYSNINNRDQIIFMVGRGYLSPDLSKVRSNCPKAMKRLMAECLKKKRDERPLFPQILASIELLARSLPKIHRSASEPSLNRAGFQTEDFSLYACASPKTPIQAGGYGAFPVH

Sequence of RAF kinases (Homo sapiens, UniProt P15056) (P15056 whole entry): as the sequence (P15056 whole entry V600E) above, with E600V counted along it
Sequence of RAF kinases (Homo sapiens, UniProt P04049) (P04049 whole entry): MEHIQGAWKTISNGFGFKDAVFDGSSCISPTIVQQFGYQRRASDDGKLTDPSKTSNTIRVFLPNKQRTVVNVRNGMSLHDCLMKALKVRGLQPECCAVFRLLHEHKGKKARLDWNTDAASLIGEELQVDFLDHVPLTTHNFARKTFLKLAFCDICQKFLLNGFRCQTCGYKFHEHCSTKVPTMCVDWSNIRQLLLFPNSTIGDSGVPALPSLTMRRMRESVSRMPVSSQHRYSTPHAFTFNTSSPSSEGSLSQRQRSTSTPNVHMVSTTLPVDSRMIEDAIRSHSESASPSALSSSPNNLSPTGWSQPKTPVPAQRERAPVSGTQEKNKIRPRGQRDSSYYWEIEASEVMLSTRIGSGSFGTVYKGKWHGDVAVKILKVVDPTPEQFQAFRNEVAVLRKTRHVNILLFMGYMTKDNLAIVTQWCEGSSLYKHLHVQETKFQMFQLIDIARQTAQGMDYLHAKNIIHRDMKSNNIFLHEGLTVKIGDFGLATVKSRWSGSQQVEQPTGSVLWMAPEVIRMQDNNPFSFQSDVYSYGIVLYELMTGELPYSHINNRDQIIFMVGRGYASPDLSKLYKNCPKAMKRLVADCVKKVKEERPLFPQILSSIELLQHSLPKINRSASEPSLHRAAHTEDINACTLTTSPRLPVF

| SMILES | IC50 [1] | Kd (RAF kinases [2]) | Kd (RAF kinases [3]) | EC50 (A375 cells) | Kd (RAF kinases [4]) |
| --- | --- | --- | --- | --- | --- |
| COc1cc2c(Oc3cccc(NC(=O)Nc4cc(C(C)(C)C)on4)c3)ncnc2cc1O[C@H]1CCN(C)C1 [Ex 97, (S)-1-(5-tert-butylisoxazol-3-yl)-3-(3-(6-methoxy-7-(1-methylpyrrolidin-3-yloxy)quinazolin-4-yloxy)phenyl)urea mono acetate] | 250 to 500 nM | 500 to 1000 nM | 250 to 500 nM | > 1000 nM | – |
| COc1cc2c(Oc3cccc(NC(=O)Nc4cc(C(C)(C)C)on4)c3)ncnc2cc1O[C@@H]1CCN(C)C1 [Ex 99, (R)-1-(5-tert-butylisoxazol-3-yl)-3-(3-(6-methoxy-7-(1-methylpyrrolidin-3-yloxy)quinazolin-4-yloxy)phenyl)urea mono acetate] | 250 to 500 nM | 250 to 500 nM | 250 to 500 nM | > 1000 nM | – |
| COc1cc2ncnc(Oc3cccc(NC(=O)Nc4cc(C(C)(C)C)on4)c3)c2cc1OC[C@H](O)CN1CCN(C)CC1 [Ex 112, (R)-1-(5-tert-butylisoxazol-3-yl)-3-(3-(6-(2-hydroxy-3-(4-methylpiperazin-1-yl)propoxy)-7-methoxyquinazolin-4-yloxy)phenyl)urea] | 250 to 500 nM | 250 to 500 nM | 500 to 1000 nM | 500 to 1000 nM | – |
| COCCOc1cc2ncnc(Oc3cccc(NC(=O)Nc4cccc(C(C)(C)C)c4)c3)c2cc1OC [Ex 119, 1-(3-tert-butylphenyl)-3-(3-(6-methoxy-7-(2-methoxyethoxy)quinazolin-4-yloxy)phenyl)urea] | 250 to 500 nM | 250 to 500 nM | 250 to 500 nM | > 1000 nM | – |
| COc1cc2ncnc(Oc3cccc(NC(=O)Nc4cc(C(F)(F)F)ncn4)c3)c2cc1OC [Ex 146, 1-(3-(6,7-dimethoxyquinazolin-4-yloxy)phenyl)-3-(6-(trifluoromethyl)pyrimidin-4-yl)urea] | > 1000 nM | 250 to 500 nM | 250 to 500 nM | > 1000 nM | – |
| COc1cc2ncnc(Oc3cccc(NC(=O)Nc4cc(C(C)(F)F)no4)c3)c2cc1OC [Ex 152, 1-(3-(1,1-difluoroethyl)isoxazol-5-yl)-3-(3-(6,7-dimethoxyquinazolin-4-yloxy)phenyl)urea] | 500 to 1000 nM | 250 to 500 nM | 250 to 500 nM | 500 to 1000 nM | – |
| COc1cc2ncnc(Sc3cccc(NC(=O)Nc4cc(C(C)(C)C)nn4C)c3)c2cc1OC [Ex 157, 1-(3-tert-butyl-1-methyl-1H-pyrazol-5-yl)-3-(3-(6,7-dimethoxyquinazolin-4-ylthio)phenyl)urea] | < 250 nM | 250 to 500 nM | 500 to 1000 nM | > 1000 nM | – |
| COc1cc2ncnc(Sc3cccc(NC(=O)Nc4cc(C(C)(CF)CF)no4)c3)c2cc1OC [Ex 160, 1-[3-(1,3-difluoro-2-methylpropan-2-yl)isoxazol-5-yl]-3-[3-(6,7-dimethoxyquinazolin-4-ylthio)phenyl]urea] | < 250 nM | 250 to 500 nM | 500 to 1000 nM | > 1000 nM | – |
| COc1cc2ncnc(Oc3cccc(NC(=O)Nc4ccc(C(C)(C)C)cc4)c3)c2cc1OC [Ex 173, 1-(4-tert-butylphenyl)-3-(3-(6,7-dimethoxyquinazolin-4-yloxy)phenyl)urea] | 250 to 500 nM | 250 to 500 nM | 500 to 1000 nM | > 1000 nM | – |
| COc1cc2ncnc(Oc3cccc(NC(=O)Nc4ccc(Cl)c(C(F)(F)F)c4)c3)c2cc1OC [Ex 176, 1-(4-chloro-3-(trifluoromethyl)phenyl)-3-(3-(6,7-dimethoxyquinazolin-4-yloxy)phenyl)urea] | 250 to 500 nM | 250 to 500 nM | 500 to 1000 nM | > 1000 nM | – |
| COc1cccc(NC(=O)Nc2cccc(Oc3ncnc4cc(OC)c(OC)cc34)c2)c1 [Ex 178, 1-(3-(6,7-dimethoxyquinazolin-4-yloxy)phenyl)-3-(3-methoxyphenyl)urea] | > 1000 nM | 250 to 500 nM | 500 to 1000 nM | > 1000 nM | – |
| COCCOc1cc2ncnc(Oc3cccc(NC(=O)Nc4cc(C5CCCC5)no4)c3)c2cc1OC [Ex 207, 1-(3-cyclopentylisoxazol-5-yl)-3-(3-(6-methoxy-7-(2-methoxyethoxy)quinazolin-4-yloxy)phenyl)urea] | > 1000 nM | 250 to 500 nM | 500 to 1000 nM | > 1000 nM | < 250 nM |
| COCCOc1cc2ncnc(Sc3cccc(NC(=O)Nc4cc(C(C)(C)F)no4)c3)c2cc1OC [Ex 234, 1-(3-(2-fluoropropan-2-yl)isoxazol-5-yl)-3-(3-(6-methoxy-7-(2-methoxyethoxy)quinazolin-4-ylthio)phenyl)urea] | < 250 nM | 250 to 500 nM | 250 to 500 nM | > 1000 nM | < 250 nM |
| COc1ccc(-n2nc(C(C)(C)C)cc2NC(=O)Nc2cccc(Oc3ncnc4cc(OC)c(OC)cc34)c2)cc1 [Ex 361, 1-(3-tert-butyl-1-(4-methoxyphenyl)-1H-pyrazol-5-yl)-3-(3-(6,7-dimethoxyquinazolin-4-yloxy)phenyl)urea] | < 250 nM | 500 to 1000 nM | 250 to 500 nM | > 1000 nM | < 250 nM |
| CCOc1cc2c(Oc3cccc(NC(=O)Nc4cc(C(C)(C)C)nn4-c4ccccc4)c3)ncnc2cc1OC [Ex 390, 1-(3-tert-butyl-1-phenyl-1H-pyrazol-5-yl)-3-(3-(6-ethoxy-7-methoxyquinazolin-4-yloxy)phenyl)urea] | < 250 nM | 500 to 1000 nM | 250 to 500 nM | – | < 250 nM |

Further lines, results first:

| IC50 [1] | Kd (RAF kinases [2]) | Kd (RAF kinases [3]) | EC50 (A375 cells) | Kd (RAF kinases [4]) | SMILES |
| --- | --- | --- | --- | --- | --- |
| > 1000 nM | 250 to 500 nM | 500 to 1000 nM | > 1000 nM | – | CCOc1cccc(NC(=O)Nc2cccc(Oc3ncnc4cc(OC)c(OC)cc34)c2)c1 [Ex 179, 1-(3-(6,7-dimethoxyquinazolin-4-yloxy)phenyl)-3-(3-ethoxyphenyl)urea] |
| < 250 nM | 250 to 500 nM | 250 to 500 nM | > 1000 nM | – | COCCOc1cc2ncnc(Oc3cccc(NC(=O)Nc4cc(C(C)(C)C)no4)c3)c2cc1OC [Ex 202, 1-(3-tert-butylisoxazol-5-yl)-3-(3-(6-methoxy-7-(2-methoxyethoxy)quinazolin-4-yloxy)phenyl)urea] |
| 500 to 1000 nM | 250 to 500 nM | 250 to 500 nM | > 1000 nM | < 250 nM | COCCOc1cc2ncnc(Oc3cccc(NC(=O)Nc4cc(C(C)C)no4)c3)c2cc1OC [Ex 215, 1-(3-isopropylisoxazol-5-yl)-3-(3-(6-methoxy-7-(2-methoxyethoxy)quinazolin-4-yloxy)phenyl)urea] |
| < 250 nM | 250 to 500 nM | 500 to 1000 nM | 250 to 500 nM | < 250 nM | COCCOc1cc2ncnc(Sc3cccc(NC(=O)Nc4cc(C(C)(CF)CF)on4)c3)c2cc1OC [Ex 230, 1-[5-(1,3-difluoro-2-methylpropan-2-yl)isoxazol-3-yl]-3-{3-[6-methoxy-7-(2-methoxyethoxy)quinazolin-4-ylthio]phenyl}urea] |
| < 250 nM | 250 to 500 nM | 250 to 500 nM | 500 to 1000 nM | < 250 nM | COc1cc2ncnc(Sc3cccc(NC(=O)Nc4ccc(OC)c(C(F)(F)F)c4)c3)c2cc1OCCCN1CCS(=O)(=O)CC1 [Ex 246, 1-(4-methoxy-3-(trifluoromethyl)phenyl)-3-(3-(7-methoxy-6-(3-(4,4-dioxothiomorpholino)propoxy)quinazolin-4-ylthio)phenyl)urea] |
| < 250 nM | 250 to 500 nM | 250 to 500 nM | > 1000 nM | < 250 nM | COCCOc1cc2ncnc(Sc3cccc(NC(=O)Nc4cc(C(C)(C)C)no4)c3)c2cc1OCCOC [Ex 247, 1-(3-(6,7-bis(2-methoxyethoxy)quinazolin-4-ylthio)phenyl)-3-(3-tert-butylisoxazol-5-yl)urea] |
| > 1000 nM | 250 to 500 nM | 250 to 500 nM | > 1000 nM | < 250 nM | COc1cc2ncnc(Oc3cccc(NC(=O)Nc4cnn(C(C)(C)C)c4)c3)c2cc1OC [Ex 252, 1-(1-tert-butyl-1H-pyrazol-4-yl)-3-(3-(6,7-dimethoxyquinazolin-4-yloxy)phenyl)urea] |
| 500 to 1000 nM | 250 to 500 nM | 500 to 1000 nM | > 1000 nM | < 250 nM | COc1cc2ncnc(Oc3cccc(NC(=O)Nc4cc(C(F)(F)F)nn4-c4ccccc4)c3C)c2cc1OC [Ex 291, 1-(3-(6,7-Dimethoxyquinazolin-4-yloxy)-2-methylphenyl)-3-(1-phenyl-3-(trifluoromethyl)-1H-pyrazol-5-yl)urea] |
| < 250 nM | 250 to 500 nM | 500 to 1000 nM | < 250 nM | < 250 nM | COc1cc2ncnc(Oc3cccc(NC(=O)Nc4cc(C(C)(C)C)nn4-c4cnccc4C)c3)c2cc1OC [Ex 303, 1-(3-tert-butyl-1-(4-methylpyridin-3-yl)-1H-pyrazol-5-yl)-3-(3-(6,7-dimethoxyquinazolin-4-yloxy)phenyl)urea] |
| < 250 nM | 500 to 1000 nM | 500 to 1000 nM | – | < 250 nM | COc1cc2ncnc(Oc3cccc(NC(=O)Nc4cc(C(C)(C)C)nn4-c4ccccc4F)c3)c2cc1OC [Ex 372, 1-(3-tert-butyl-1-(2-fluorophenyl)-1H-pyrazol-5-yl)-3-(3-(6,7-dimethoxyquinazolin-4-yloxy)phenyl)urea] |
| < 250 nM | 500 to 1000 nM | 500 to 1000 nM | – | < 250 nM | CCOc1cc2ncnc(Oc3cccc(NC(=O)Nc4cc(C(C)(C)C)nn4-c4ccccc4)c3)c2cc1OC [Ex 387, 1-(3-tert-butyl-1-phenyl-1H-pyrazol-5-yl)-3-(3-(7-ethoxy-6-methoxyquinazolin-4-yloxy)phenyl)urea] |
| 500 to 1000 nM | 500 to 1000 nM | 500 to 1000 nM | 500 to 1000 nM | < 250 nM | COc1cc2c(Oc3cccc(NC(=O)Nc4cc(C(F)(F)F)nn4-c4ccccc4)c3)ncnc2cc1OCCN1CCOCC1 [Ex 396, 1-(3-(6-Methoxy-7-(2-morpholinoethoxy)quinazolin-4-yloxy)phenyl)-3-(1-phenyl-3-(trifluoromethyl)-1H-pyrazol-5-yl)urea] |
